Results: patent US7034035B2, “Fungicidal mono-, bi-, and tri-cycloheteroalkyl amides and their compositions, methods of use and preparation” (priority 1999, dated 2006)

Key:
[1] = system: Ustilago maydis (USTIMA); assay: microbe, parasite or virus in culture; type: cell-based
[2] = system: Rhizoctonia solani (RHIZSO); assay: microbe, parasite or virus in culture; type: cell-based
Also: test concentration or dose not given here.

| SMILES | USTIMA in vitro Growth Inhibition [1] | RHIZSO in vitro Growth Inhibition [2] |
| --- | --- | --- |
| COc1ccnc(C(=O)N[C@@H](CO)C(=O)O[C@@H](C)[C@H](OC(=O)C(C)C)[C@@H](Cc2ccccc2)C(=O)O)c1O [Compound 341] | − (key: +: at least 80% growth inhibition; −: less than 80% growth inhibition) | − (key: +: at least 80% growth inhibition; −: less than 80% growth inhibition) |
| COc1ccnc(C(=O)NC2CCC(Sc3ccccc3)CC2)c1O (centres unmarked) [Compound 275] | − (key: +: at least 80% growth inhibition; −: less than 80% growth inhibition) | + (key: +: at least 80% growth inhibition; −: less than 80% growth inhibition) |
| COc1ccnc(C(=O)NC2CCc3ccccc3C2=O)c1O (centres unmarked) [Compound 285] | − (key: +: at least 80% growth inhibition; −: less than 80% growth inhibition) | + (key: +: at least 80% growth inhibition; −: less than 80% growth inhibition) |
| COc1ccnc(C(=O)NC2CC(C)(C)C(OC)C(C)(C)C2)c1O (centres unmarked) [Compound 265] | − (key: +: at least 80% growth inhibition; −: less than 80% growth inhibition) | − (key: +: at least 80% growth inhibition; −: less than 80% growth inhibition) |
| COc1ccnc(C(=O)N[C@@H]2CC3CC2[C@@H](c2ccccc2)[C@@H]3C(=O)OC(C)C)c1O (some centres unmarked) [Compound 300] | − (key: +: at least 80% growth inhibition; −: less than 80% growth inhibition) | + (key: +: at least 80% growth inhibition; −: less than 80% growth inhibition) |
| CC(C)C(=O)OC1CCC(NC(=O)c2ncccc2O)CC1 (centres unmarked) [Compound 210] | − (key: +: at least 80% growth inhibition; −: less than 80% growth inhibition) | − (key: +: at least 80% growth inhibition; −: less than 80% growth inhibition) |
| COc1ccnc(C(=O)NC2COC3(CC(C)(C)CC(C)(C)C3)OC2)c1O [Compound 315] | − (key: +: at least 80% growth inhibition; −: less than 80% growth inhibition) | − (key: +: at least 80% growth inhibition; −: less than 80% growth inhibition) |
| COc1ccnc(C(=O)N[C@H]2CO[C@@](C)(C(C)CC3=C(C)CCCC3(C)C)OC2)c1O (some centres unmarked) [Compound 318] | − (key: +: at least 80% growth inhibition; −: less than 80% growth inhibition) | + (key: +: at least 80% growth inhibition; −: less than 80% growth inhibition) |
| COc1ccnc(C(=O)NC2CC3OC2C(C)C(OC(=O)C(C)C)C3C)c1O (centres unmarked) [Compound 320] | − (key: +: at least 80% growth inhibition; −: less than 80% growth inhibition) | − (key: +: at least 80% growth inhibition; −: less than 80% growth inhibition) |
| COc1ccnc(C(=O)NC2CC(C)(C)CC(C)(C)C2)c1O [Compound 250] | − (key: +: at least 80% growth inhibition; −: less than 80% growth inhibition) | − (key: +: at least 80% growth inhibition; −: less than 80% growth inhibition) |
| Cc1ccc(CNC(=O)c2ncccc2O)cc1 [Compound 223] | + (key: +: at least 80% growth inhibition; −: less than 80% growth inhibition) | − (key: +: at least 80% growth inhibition; −: less than 80% growth inhibition) |
| CCCCC1(C)CCCC(NC(=O)c2nccc(OC)c2O)C1 (centres unmarked) [Compound 254] | − (key: +: at least 80% growth inhibition; −: less than 80% growth inhibition) | − (key: +: at least 80% growth inhibition; −: less than 80% growth inhibition) |
| COc1ccnc(C(=O)NC2C3(C)CCC(C3)C2(C)C)c1O (centres unmarked) [Compound 288] | − (key: +: at least 80% growth inhibition; −: less than 80% growth inhibition) | + (key: +: at least 80% growth inhibition; −: less than 80% growth inhibition) |
| COc1ccnc(C(=O)NC2CC(C)(C)C(OC(=O)c3ccccc3)C(C)(C)C2)c1O (centres unmarked) [Compound 268] | − (key: +: at least 80% growth inhibition; −: less than 80% growth inhibition) | − (key: +: at least 80% growth inhibition; −: less than 80% growth inhibition) |
| COc1ccnc(C(=O)N[C@@H]2OC[C@@H](OC(C)=O)[C@H](OC(C)=O)[C@H]2OC(C)=O)c1O [Compound 330] | − (key: +: at least 80% growth inhibition; −: less than 80% growth inhibition) | − (key: +: at least 80% growth inhibition; −: less than 80% growth inhibition) |
| CC(NC(=O)c1ncccc1O)c1ccc(Cl)cc1 (centres unmarked) [Compound 230] | − (key: +: at least 80% growth inhibition; −: less than 80% growth inhibition) | − (key: +: at least 80% growth inhibition; −: less than 80% growth inhibition) |
| COc1ccnc(C(=O)NC2CCCCCCC2)c1O [Compound 282] | − (key: +: at least 80% growth inhibition; −: less than 80% growth inhibition) | − (key: +: at least 80% growth inhibition; −: less than 80% growth inhibition) |
| COc1ccnc(C(=O)NCC2COCCOCCOCCOCCO2)c1O (centres unmarked) [Compound 245] | − (key: +: at least 80% growth inhibition; −: less than 80% growth inhibition) | − (key: +: at least 80% growth inhibition; −: less than 80% growth inhibition) |
| Cc1ccnc(C(=O)Nc2ccc(Oc3cccc(C(F)(F)F)c3)cc2)c1O [Compound 238] | − (key: +: at least 80% growth inhibition; −: less than 80% growth inhibition) | − (key: +: at least 80% growth inhibition; −: less than 80% growth inhibition) |
| O=C(Nc1ccc(Oc2ccc(C(F)(F)F)cc2)cc1)c1ncccc1O [Compound 217] | − (key: +: at least 80% growth inhibition; −: less than 80% growth inhibition) | − (key: +: at least 80% growth inhibition; −: less than 80% growth inhibition) |
| COc1ccnc(C(=O)NC2CC(C)(C)C(OC(=O)CC(C)C)C(C)(C)C2)c1O (centres unmarked) [Compound 267] | + (key: +: at least 80% growth inhibition; −: less than 80% growth inhibition) | − (key: +: at least 80% growth inhibition; −: less than 80% growth inhibition) |
| COc1ccnc(C(=O)N[C@H]2CC(C)(C)[C@H](O)C(C)(C)C2)c1O [Compound 264, trans-4-Hydroxy-3,3,5,5-Tetramethylpicolinamide] | − (key: +: at least 80% growth inhibition; −: less than 80% growth inhibition) | − (key: +: at least 80% growth inhibition; −: less than 80% growth inhibition) |
